We go through six compounds from US20120128639A1, “In Vitro Production Of Oligodendrocytes From Human Umbilical Cord Stem Cells” (UNIVERSITY OF CENTRAL FLORIDA RESEARCH FOUNDATION, INC., priority 2009, published 2012).

Several values for one entry are separate records, joined by “and”; a condition that tells them apart may be missing. Equal entries are not always repeated. Entries after “also recorded” stand apart in the source; their conditions may differ.

The subject of assay [1] is human multipotent progenitor cells (MLPCs) from umbilical cord. In words: Morphological analysis of MLPC differentiation in 2D environment. Conditions: for need of the factor for the desired morphology (omission from differentiation medium): 15 days in differentiation medium. Type of assay: cell-based.
Method: MLPCs were seeded on DETA-coated glass coverslips (18 mm) at a density of 4×10^3 cells/cm^2 in growth medium. After 3 days, at about 60% confluency, cells were incubated for 24 hours in pre-induction medium, consisting of DMEM, 15% FBS. […] To initiate differentiation, the pre-induction medium was removed, the cells were washed 2× with Hanks' balanced salts solution (Gibco BRL) and transferred to serum-free differentiation medium.
Assay [2] shares this test system. In words: Immunocytochemical analysis of MLPC differentiation in 3D environment (NE or AR agonists). Type of assay: cell-based. The conditions noted are these: for cells stained positively for A2B5 / cells stained positively for MBP / cells stained positively for O4 / cells stained positively for O1 galactocerebroside: 30 days of differentiation, 20 μM added daily. The protocol:
To characterize cells by immunocytochemistry, the top coverslips, if present, were first carefully removed. […] Cambridge, Mass.). Following a PBS washing, cells were incubated with an Alexa Fluor 488-conjugated anti-mouse IgG or Alexa Fluor 488-conjugated anti-rabbit IgG for 2 hours at room temperature. After a PBS washing, the coverslips were mounted with Vectashield mounting medium ([…], Vector Laboratories, Burlingame, Calif.) onto slides. For visualizing cellular nuclei, the specimens were counterstained with DAPI. Immunoreactivity was observed and analyzed by using an Ultra VIEWTM LCI confocal imaging system (Perkin Elmer).

The test system is the same in assay [3]. The conditions noted are these: 3D environment; for need of the growth factor for process formation: presence or absence in medium. The protocol: MLPCs were seeded on DETA-coated glass coverslips (18 mm) at a density of 4×10^3 cells/cm^2 in growth medium. After 3 days, at about 60% confluency, cells were incubated for 24 hours in pre-induction medium, consisting of DMEM, 15% FBS. FGF-2, EGF (20 ng/ml each, R & D Systems, Minneapolis, Minn.) and PDGF-AA (10 ng/ml, Chemicon International, Temecula, Calif.). To initiate differentiation, the pre-induction medium was removed, the cells were washed 2× with Hanks' balanced salts solution (Gibco BRL) and transferred to serum-free differentiation medium.
Construction of 3D Environment MLPCs were plated on DETA-coated glass coverslips (18 mm) in growth medium. At about 60% confluence, growth medium was replaced with pre-induction medium. After the medium replacement, another set of coverslips was placed on the top of the cells. Prior to the placement, top coverslips were ethanol sterilized and washed in the pre-induction medium. After 24 hours the pre-induction medium was removed, the cells were washed 2× with Hanks' Balanced Salts Solution and transferred to serum-free differentiation medium.
Phase-contrast images were taken with a commercial Nikon Coolpix 990 camera using the Zeiss Axiovert S100 microscope. Pictures were analyzed using Scion Image Software (Scion Corp., Frederick, Md.).
The morphological and immunocytochemical quantification was performed on undifferentiated stem cells or cells during various differentiation stages. For each coverslip, at least 10 pictures were taken from randomly chosen views under 200× magnification. All the marker-positive cells were counted, as well as the total number of cells in these views. At least three coverslips in each group were quantified and data were expressed as average±standard deviation (SD). Statistical differences between different experimental groups were analyzed by Student's t-test.

Assay [4] shares this test system. In words: Immunocytochemical analysis of MLPC differentiation into oligodendrocyte lineage in 2D environment. Format: cell-based. The protocol:
(§1) To characterize cells by immunocytochemistry, the top coverslips, if present, were first carefully removed. Cells were then briefly washed with Hanks' balanced salts solution and fixed in 4% paraformaldehyde for about 18 min. Fixed cells were stored in PBS, permeabilized with 0.5% Triton 100× in PBS for 7 min. blocked with 5% donkey serum for 1 hr, followed by incubation with primary antibody overnight at 4° C. Primary antibodies were mouse monoclonal A2B5 (MAB312, 1:250). O4 (MAB345, 1:100). O1 (MAB344, 1:200), MBP (1:25), rabbit polyclonal anti-galactocerebroside (AB142, 1:200), all from Chemicon, mouse monoclonal beta-2-AR (sc-81577, 1:200), rabbit polyclonal beta-1AR (sc-567, 1:250) from Santa Cruz Biotechnology, and alpha-1-AR (ab3462, 1:1000, Abcam Inc. Cambridge, Mass.). Following a PBS washing, cells were incubated with an Alexa Fluor 488-conjugated anti-mouse IgG or Alexa Fluor 488-conjugated anti-rabbit IgG for 2 hours at room temperature. After a PBS washing, the coverslips were mounted with Vectashield mounting medium (H1000, Vector Laboratories, Burlingame, Calif.) onto slides. For visualizing cellular nuclei, the specimens were counterstained with DAPI. Immunoreactivity was observed and analyzed by using an Ultra VIEW™ LCI confocal imaging system (Perkin Elmer).

Assay [5] relates to α1-ARs. In words: Immunocytochemical analysis of α1-AR expression in MLPCs. Type of assay: cell-based, human. The conditions noted are these: undifferentiated MLPCs; 24 hrs treatment with bFGF alone. The protocol:
as §1

[6] abbreviates: 8 days of differentiation, differentiation medium with 20 μM NE.

For `COC(=O)[C@@]1(O)C[C@H]2O[C@]1(C)n1c3ccccc3c3c4c(c5c6ccccc6n2c5c31)C(=O)NC4` [K252a], the “need of the factor for the desired morphology (omission from differentiation medium)” value in assay [1] is listed as “essential”.
For the compound `NC[C@H](O)c1ccc(O)c(O)c1` [NE, norepinephrine], the “need of the factor for the desired morphology (omission from differentiation medium)” value in assay [1] was “essential”. In addition, the “cells that developed multiple processes” value in assay [1] (within 8 days of differentiation) is reported as “approximately 70%”. Further, in assay [2] (20 days of differentiation), the MBP staining entry is “negative” and the O1 staining entry is listed as “negative”. In assay [2], the “cells stained positively for A2B5” value was 57.7% and 57.7±3.6%; the “cells stained positively for MBP” value was 15.2% and 15.2±0.5%; the “cells stained positively for O4” value was 79.6% and 79.6±2.9%. Further, the “survival of differentiated cells in culture” value in assay [3] is listed as “more than 40 days”. In assay [4] (8 days of differentiation), the “expression of MBP” value is on record as “absent”. Also, in assay [4] (setting [6]), the “cells with positive staining for A2B5” value is 72.4% and 72.4±3.4%; the “cells with positive staining for O4” value was 69.9% and 69.9±4.9%. For the same compound, in assay [4] (day 15 of differentiation), the “cells with positive staining for A2B5” value worked out at 70.3% and the “cells with positive staining for O4” value was 69.7%. In assay [4] (day 20 of differentiation), the MBP staining result was “negative”; the O1 staining result is recorded as “negative”; the “cells A2B5 positive” value was 35.0% and 35.0±4.8%; the “cells O4 positive” value was 49.7% and 49.7±7.9%. The “expression of MBP” value in assay [4] (differentiating cells, time not stated (FIG. 3B)) was “absent”.
On to `CC(C)NCC(O)c1ccc(O)c(O)c1` (centres unmarked) [isoproterenol], for which, in assay [2], the “cells stained positively for A2B5” value came to 57.9±4.9%, the “cells stained positively for MBP” value is reported as “negative”, the “cells stained positively for O1 galactocerebroside” value is listed as “negative” and the “cells stained positively for O4” value worked out at 42.5±2.7%. In addition, the “cells displaying a bipolar morphology” value in assay [3] (daily treatment, first 15 days, unchanged within 30 days) is “approximately 60%”.
`CNC[C@H](O)c1cccc(O)c1` [phenylephrine]: in assay [2], the “cells stained positively for A2B5” value came out at 40.5±3.4%, the “cells stained positively for O1 galactocerebroside” value is recorded as 15.2±1.5% and the “cells stained positively for O4” value turned out to be 39.8±2.8%. The “cells with more mature morphology with developed processes” value in assay [3] (day 30) was 10% and 15%. In addition, the “cells that began to develop processes” value in assay [3] (within 15 days of differentiation) is given as “approximately 40%”.
Regarding PDGF, in assay [3], the “need of the growth factor for process formation” value is reported as “required”.
Turning to “bFGF: growth factor in pre-induction and differentiation medium”, the “nuclear expression of α1-ARs” value in assay [5] is recorded as “significant increase in staining intensity; also recorded: increase nuclear expression of α1-ARs”. In addition, in assay [3], the “need of the growth factor for process formation” value was “not essential”.
